Holding throughout (format): cell-based
Assay [1] has as its target T1, F876L mutant Androgen Receptor (AR-F876L) (Homo sapiens, UniProt P10275, F877L).
T1 construct: expressed in transfected cells; host or cells: LNCaP (LNCaP F876L)
T1 sequence (P10275 1-920 F877L): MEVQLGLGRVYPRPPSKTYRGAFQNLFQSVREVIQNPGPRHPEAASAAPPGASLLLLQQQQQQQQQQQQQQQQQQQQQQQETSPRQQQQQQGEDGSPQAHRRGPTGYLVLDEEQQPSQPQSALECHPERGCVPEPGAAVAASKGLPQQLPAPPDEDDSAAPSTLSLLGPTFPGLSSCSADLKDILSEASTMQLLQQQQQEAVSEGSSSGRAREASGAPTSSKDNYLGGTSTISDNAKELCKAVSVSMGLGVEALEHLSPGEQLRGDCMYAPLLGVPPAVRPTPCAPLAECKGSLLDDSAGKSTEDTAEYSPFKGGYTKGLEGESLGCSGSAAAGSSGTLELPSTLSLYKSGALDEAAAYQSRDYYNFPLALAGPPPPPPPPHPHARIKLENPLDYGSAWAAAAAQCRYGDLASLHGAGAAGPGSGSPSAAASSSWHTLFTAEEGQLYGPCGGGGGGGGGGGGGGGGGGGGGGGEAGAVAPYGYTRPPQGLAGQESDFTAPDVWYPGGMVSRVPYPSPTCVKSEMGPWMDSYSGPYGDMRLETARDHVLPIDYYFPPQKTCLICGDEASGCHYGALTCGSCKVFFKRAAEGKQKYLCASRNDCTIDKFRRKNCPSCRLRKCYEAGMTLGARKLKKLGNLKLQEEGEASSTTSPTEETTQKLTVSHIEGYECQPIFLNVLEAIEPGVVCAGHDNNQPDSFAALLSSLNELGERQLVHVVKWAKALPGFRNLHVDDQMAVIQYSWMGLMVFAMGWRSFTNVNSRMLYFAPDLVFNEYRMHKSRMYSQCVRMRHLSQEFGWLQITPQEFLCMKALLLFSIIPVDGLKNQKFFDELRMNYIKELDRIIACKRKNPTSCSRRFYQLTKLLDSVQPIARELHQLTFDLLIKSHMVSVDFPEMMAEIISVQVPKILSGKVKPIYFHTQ
Nature of the assay: LNCaP-AR-F876L AG reporter assay (ARE firefly luciferase, agonist mode). The conditions noted are these: for EC50: agonist mode, −Log10(EC50 [Molar]), read-out: LNCaP-AR-F876L AG pEC50 (converted); for Emax: maximum % stimulation (agonist response) over tested concentration range, read-out: LNCaP-AR-F876L AG MAX % Stim. The method, boiled down:
(§1)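 LNCaP stable pooled lines expressing ARE-firefly luciferase, in charcoal-stripped serum medium, were exposed to compounds; antagonist mode used agonist at 400 pM (WT) or 600 pM (F876L).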
(Reporter assays use an easily measured gene product as a stand-in for the process of interest.)

Assay [2] deals with T2, wild-type Androgen Receptor (AR-wt) (Homo sapiens, UniProt P10275).
T2 construct: expressed in transfected cells; host or cells: LNCaP (LNCaP AR (cs))
T2 sequence (P10275 1-920): T1 sequence (P10275 1-920 F877L) with L877F
Nature of the assay: LNCaP-AR-wt AG reporter assay (ARE firefly luciferase, agonist mode). The conditions noted are these: for EC50: agonist mode, −Log10(EC50 [Molar]), read-out: LNCaP-AR-wt AG pEC50 (converted); for Emax: maximum % stimulation (agonist response) over tested concentration range, read-out: LNCaP-AR-wt AG MAX % Stim. The method, boiled down: as §1

The target of assay [3] is T1, F876L mutant Androgen Receptor (AR-F876L). Nature of the assay: LNCaP-AR-F876L ANT reporter assay (ARE firefly luciferase, antagonist mode). The conditions noted are these: for Emax: maximum % inhibition of R1881 control response over tested concentration range, read-out: LNCaP-AR-F876L ANT MAX % Inh; for IC50: read-out: LNCaP-AR-F876L ANT pIC50 (converted). Put shortly:
(§2)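 Read-out is luciferase luminescence taken 1 h after Steady-Glo addition, following 20-24 h compound exposure at 37 °C in LNCaP pools stably carrying wild-type or F876L AR. Cells were grown in charcoal-stripped serum. Antagonist wells received agonist at 400 pM (WT) or 600 pM (F876L).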

In assay [4] the target is T2, wild-type Androgen Receptor (AR-wt). Nature of the assay: LNCaP-AR-wt ANT reporter assay (ARE firefly luciferase, antagonist mode). The conditions noted are these: for IC50: antagonist mode, 400 pM R-1881 challenge, −Log10(IC50 [Molar]), read-out: LNCaP-AR-wt ANT pIC50 (converted); for Emax: maximum % inhibition of R1881 control response over tested concentration range, read-out: LNCaP-AR-wt ANT MAX % Inh. Put shortly:
as §2

Changes are numbered by the printed parent chain. Where only a bound is given, the exact number is not on record here.

Regarding `N#Cc1ncc(N2C(=O)C3(CCC3)N(c3ccc(C(=O)NCCc4cccnc4)c(F)c3)C2=S)cc1C(F)(F)F` [Cpd 96, 4-[6-[6-cyano-5-(trifluoromethyl)-3-pyridyl]-5-oxo-7-thioxo-6,8-diazaspiro[3.4]octan-8-yl]-2-fluoro-N-[2-(3-pyridyl)ethyl]benzamide], the EC50 in assay [1] and in assay [2] was above 15100 nM in each case. In addition, the Emax in assay [1] is 0.8%; in assay [2], 1.5%; in assay [3], 100%; in assay [4], 101%. In addition, the figures for the IC50 in assay [3] and in assay [4] were 347 nM and 407 nM, respectively.
`N#Cc1ncc(N2C(=O)C3(CCC3)N(c3ccc(C(F)(F)F)cc3)C2=S)cc1C(F)(F)F` [Cpd 98, 5-[5-oxo-7-thioxo-8-[4-(trifluoromethyl)phenyl]-6,8-diazaspiro[3.4]octan-6-yl]-3-(trifluoromethyl)pyridine-2-carbonitrile]: the EC50 in assay [1] and in assay [2] was above 15100 nM throughout. In addition, the Emax in assay [1] amounted to 1.6%; in assay [2] it was 0%; in assay [3] it was 98.9%; in assay [4] it was 102%. Moreover, the IC50 in assay [3] was 245 nM; in assay [4] it was 295 nM.
In the case of `Cc1cc(N2C(=O)C3(CCC3)N(c3ccc(O)cc3)C2=S)cnc1C#N` [Cpd 48, 5-[8-(4-hydroxyphenyl)-5-oxo-7-thioxo-6,8-diazaspiro[3.4]octan-6-yl]-3-methyl-pyridine-2-carbonitrile], the EC50 in assay [1] and in assay [2] was above 15100 nM each time. The Emax came to 0.5% in assay [1], 1.1% in assay [2], 99.2% in assay [3] and 96.3% in assay [4]. Moreover, the IC50 in assay [3] is 398 nM; in assay [4], 617 nM.
Regarding `N#Cc1ncc(N2C(=O)C3(CCC3)N(c3ccc(C(=O)NCCCN4CCCC4=O)c(F)c3)C2=S)cc1C(F)(F)F` [Cpd 37, 4-[6-[6-cyano-5-(trifluoromethyl)-3-pyridyl]-5-oxo-7-thioxo-6,8-diazaspiro[3.4]octan-8-yl]-2-fluoro-N-[3-(2-oxopyrrolidin-1-yl)propyl]benzamide], the EC50 in assay [1] and in assay [2] was above 15100 nM each time. The Emax turned out to be 0.3% in assay [1], 0.3% in assay [2], 96.5% in assay [3] and 99.3% in assay [4]. The IC50 in assay [3] is 398 nM; in assay [4] it was 1200 nM.
Take `CCN1CCC(Oc2ccc(N3C(=S)N(c4cnc(C#N)c(C)c4)C(=O)C34CCC4)cc2)CC1` [Cpd 61, 5-[8-[4-[(1-ethyl-4-piperidyl)oxy]phenyl]-5-oxo-7-thioxo-6,8-diazaspiro[3.4]octan-6-yl]-3-methyl-pyridine-2-carbonitrile]: the EC50 in assay [1] and in assay [2] was above 15100 nM in each case. Moreover, the Emax was 0.7% in assay [1], 1.1% in assay [2], 100% in assay [3] and 100% in assay [4]. Besides, the figures for the IC50 in assay [3] and in assay [4] were 380 nM and 1260 nM, respectively.
Consider `CN1CCN(CCCNC(=O)c2ccc(N3C(=S)N(c4cnc(C#N)c(C(F)(F)F)c4)C(=O)C34CCC4)cc2F)CC1` [Cpd 108, 4-[6-[6-cyano-5-(trifluoromethyl)-3-pyridyl]-5-oxo-7-thioxo-6,8-diazaspiro[3.4]octan-8-yl]-2-fluoro-N-[3-(4-methylpiperazin-1-yl)propyl]benzamide], for which the EC50 in assay [1] and in assay [2] was above 15100 nM in each case. The Emax in assay [1] was 2.5%; in assay [2], 2.3%; in assay [3] it was 95.6%; in assay [4], 94.5%. In addition, the IC50 in assay [3] is 389 nM; in assay [4], 813 nM.
Consider `CCOC(=O)CCCNC(=O)c1ccc(N2C(=S)N(c3cnc(C#N)c(C(F)(F)F)c3)C(=O)C23CCC3)cc1F` [Cpd 82, ethyl 4-[[4-[6-[6-cyano-5-(trifluoromethyl)-3-pyridyl]-5-oxo-7-thioxo-6,8-diazaspiro[3.4]octan-8-yl]-2-fluoro-benzoyl]amino]butanoate], for which the EC50 in assay [1] and in assay [2] was above 15100 nM in each case. Also, the Emax in assay [1] came out at 1.2%; in assay [2], 0%; in assay [3], 95.5%; in assay [4] it was 103%. The IC50 in assay [3] is 437 nM; in assay [4] it was 363 nM.
Take `CNC(=O)c1ccc(N2C(=S)N(c3cnc(C#N)c(C)c3)C(=O)C23CCC3)cc1F` [Cpd 16, 4-[6-(6-cyano-5-methyl-3-pyridyl)-5-oxo-7-thioxo-6,8-diazaspiro[3.4]octan-8-yl]-2-fluoro-N-methyl-benzamide]: the EC50 in assay [1] and in assay [2] was above 15100 nM in each case. Moreover, the Emax was found to be 0% in assay [1], 0.3% in assay [2], 98.7% in assay [3] and 99.2% in assay [4]. In addition, the IC50 in assay [3] is 269 nM; in assay [4], 631 nM.
Regarding `Cc1cc(N2C(=O)C3(CCC3)N(c3ccc(OCCN4CCN(C)CC4)cc3)C2=S)cnc1C#N` [Cpd 10, 3-methyl-5-[8-[4-[2-(4-methylpiperazin-1-yl)ethoxy]phenyl]-5-oxo-7-thioxo-6,8-diazaspiro[3.4]octan-6-yl]pyridine-2-carbonitrile], the EC50 in assay [1] and in assay [2] was above 15100 nM throughout. Further, the Emax is 0.1% in assay [1], 0.6% in assay [2], 98.4% in assay [3] and 99% in assay [4]. The IC50 in assay [3] is 490 nM; in assay [4], 724 nM.
As to `CN(CCCNC(=O)c1ccc(N2C(=S)N(c3cnc(C#N)c(C(F)(F)F)c3)C(=O)C23CCC3)cc1F)C1CCCC1` [Cpd 64, 4-[6-[6-cyano-5-(trifluoromethyl)-3-pyridyl]-5-oxo-7-thioxo-6,8-diazaspiro[3.4]octan-8-yl]-N-[3-[cyclopentyl(methyl)amino]propyl]-2-fluoro-benzamide], the EC50 in assay [1] and in assay [2] was above 15100 nM throughout. Moreover, the Emax is 0.7% in assay [1], 1.2% in assay [2], 98.1% in assay [3] and 98.9% in assay [4]. For the same compound, the IC50 in assay [3] is 174 nM; in assay [4], 282 nM.

For the origin of these results see patent US20180008587A1, “THIOHYDANTOIN ANDROGEN RECEPTOR ANTAGONISTS FOR THE TREATMENT OF CANCER” (Jaressen Pharmaceutica NV, priority 2016, published 2018).
